The target of experiment [1] is GDP-bound KRAS wild-type protein (Homo sapiens, UniProt P01116). As to the kind of experiment: Binding to KRAS by surface plasmon resonance (SPR), Single Cycle Kinetics. To be noted: SPR, Single Cycle Kinetics; GDP-bound KRAS wild-type protein. Background: In SPR one partner is held on a chip, and binding of the other changes the refractive index at the surface.
The target of experiment [2] is GDP-bound NRAS wild-type protein (Homo sapiens, UniProt P01111). Nature of the experiment: Binding to NRAS by surface plasmon resonance (SPR), Single Cycle Kinetics. To be noted: SPR; KD ratio class.
Experiment [3] deals with GDP-bound HRAS wild-type protein (Homo sapiens, UniProt P01112). Nature of the experiment: Binding to HRAS by surface plasmon resonance (SPR), Single Cycle Kinetics. Conditions: SPR; KD ratio class.
Experiment [4] concerns human lung cancer strain NCI-H441. Conditions: read-out: NCI-H441 IC50; NCI-H441 cells, 4 days, CellTiter-Glo. In general terms: ATP-based viability assays read luminescence as a measure of living cells.

SMILES strings stand for the structures.

Sequence of GDP-bound HRAS wild-type protein (P01112 whole entry): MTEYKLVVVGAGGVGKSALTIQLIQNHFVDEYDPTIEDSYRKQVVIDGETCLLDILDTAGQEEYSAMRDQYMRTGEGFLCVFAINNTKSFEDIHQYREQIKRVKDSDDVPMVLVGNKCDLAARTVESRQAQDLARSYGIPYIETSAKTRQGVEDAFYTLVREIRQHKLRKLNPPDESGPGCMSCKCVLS
Sequence of GDP-bound NRAS wild-type protein (P01111 whole entry): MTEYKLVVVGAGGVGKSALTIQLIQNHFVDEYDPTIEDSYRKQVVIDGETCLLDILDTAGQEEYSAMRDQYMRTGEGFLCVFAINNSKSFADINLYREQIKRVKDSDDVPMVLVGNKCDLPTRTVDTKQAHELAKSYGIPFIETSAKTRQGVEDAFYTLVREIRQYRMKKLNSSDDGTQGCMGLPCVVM

Take `CCO[C@@H]1C[C@H]2C(=O)NC3(CCC3)C(=O)N(C)[C@@H](C3CCCC3)C(=O)N(C)[C@H](C(=O)N(C)C)CC(=O)N(C)[C@@H](CC3CC3)C(=O)N[C@@H]([C@@H](C)CC)C(=O)N(C)CC(=O)N(C)[C@H]3C/C=C\CCN(C3=O)[C@@H](Cc3ccc(C)cc3)C(=O)N(C)CC(=O)N[C@@H](CCc3cc(F)c(C(F)(F)F)c(F)c3)C(=O)N2C1` [PP1407]: the Kd (usually a measure of binding affinity in units of concentration) in experiment [1] turned out to be 0.074 nM. For the same compound, in experiment [2], the “NRAS/KRAS (ratio of KD value for GDP-bound NRAS wild-type protein to KD value for KRAS)” value was “A (a compound having 10 or more and less than 20 is denoted as A)”. Also, the “HRAS/KRAS (ratio of KD value for GDP-bound HRAS wild-type protein to KD value for KRAS)” value in experiment [3] was “A (a compound having 10 or more and less than 20 is denoted as A)”. Further, the IC50 (as a rule, the midpoint of a concentration-inhibition curve) in experiment [4] worked out at 18.7 nM.
Regarding `CCO[C@@H]1C[C@H]2C(=O)NC3(CCC3)C(=O)N(C)[C@@H](C3CCCC3)C(=O)N(C)[C@H](C(=O)N3CCCC3)CC(=O)N(C)[C@@H](CC)C(=O)N[C@@H]([C@@H](C)CC)C(=O)N(C)CC(=O)N(C)[C@H]3C/C=C\CCN(C3=O)[C@@H](CC3CCC(F)(F)CC3)C(=O)N(C)CC(=O)N[C@@H](CCc3cc(F)c(C(F)(F)F)c(F)c3)C(=O)N2C1` [PP1442], in experiment [1], the Kd was 0.13 nM. Moreover, the “NRAS/KRAS (ratio of KD value for GDP-bound NRAS wild-type protein to KD value for KRAS)” value in experiment [2] was “A (a compound having 10 or more and less than 20 is denoted as A)”. In experiment [3], the “HRAS/KRAS (ratio of KD value for GDP-bound HRAS wild-type protein to KD value for KRAS)” value was “A (a compound having 10 or more and less than 20 is denoted as A)”. Also, the IC50 in experiment [4] was 48.3 nM.
In experiment [1], `CCO[C@@H]1C[C@H]2C(=O)NC3(CCC3)C(=O)N(C)[C@@H](C3CCCC3)C(=O)N(C)[C@H](C(=O)N(C)C)CC(=O)N(C)[C@@H](CC3CC3)C(=O)N[C@@H]([C@@H](C)CC)C(=O)N(C)CC(=O)N(C)[C@H]3C/C=C\CCN(C3=O)[C@@H](CC3CCC(F)(F)CC3)C(=O)N(C)CC(=O)N[C@@H](CCc3cc(F)c(C(F)(F)F)c(F)c3)C(=O)N2C1` [PP1447] displayed a Kd of 0.12 nM. Also, in experiment [2], the “NRAS/KRAS (ratio of KD value for GDP-bound NRAS wild-type protein to KD value for KRAS)” value is “A (a compound having 10 or more and less than 20 is denoted as A)”. Also, the “HRAS/KRAS (ratio of KD value for GDP-bound HRAS wild-type protein to KD value for KRAS)” value in experiment [3] was “A (a compound having 10 or more and less than 20 is denoted as A)”. Moreover, the IC50 in experiment [4] came to 28.9 nM.
In turn, `CCC[C@H]1C(=O)N[C@@H]([C@@H](C)CC)C(=O)N(C)CC(=O)N(C)[C@H]2C/C=C\CCN(C2=O)[C@@H](CC2CCC(F)(F)CC2)C(=O)N(C)CC(=O)N[C@@H](CCc2cc(F)c(C(F)(F)F)c(F)c2)C(=O)N2C[C@H](OCC)C[C@H]2C(=O)NC2(CCC2)C(=O)N(C)[C@@H](C2CCCC2)C(=O)N(C)[C@H](C(=O)N(C)C)CC(=O)N1C` [PP1450] gave a Kd in experiment [1] of 0.14 nM. Moreover, the “NRAS/KRAS (ratio of KD value for GDP-bound NRAS wild-type protein to KD value for KRAS)” value in experiment [2] was “A (a compound having 10 or more and less than 20 is denoted as A)”. Further, the “HRAS/KRAS (ratio of KD value for GDP-bound HRAS wild-type protein to KD value for KRAS)” value in experiment [3] was “A (a compound having 10 or more and less than 20 is denoted as A)”. Besides, the IC50 in experiment [4] was 50.1 nM.
On to `CC[C@H](C)[C@@H]1NC(=O)[C@H](CC)N(C)C(=O)C[C@@H](C(=O)N(C)C)N(C)C(=O)[C@H](C2CCCC2)N(C)C(=O)C2(CCC2)NC(=O)[C@@H]2C[C@@H](C(F)(F)F)CN2C(=O)[C@H](CCc2cc(F)c(C(F)(F)F)c(F)c2)NC(=O)CN(C)C(=O)[C@H](CC2CCC(F)(F)CC2)N2CC/C=C\C[C@@H](C2=O)N(C)C(=O)CN(C)C1=O` [PP1451], for which, in experiment [1], the affinity, expressed as Kd, was 0.14 nM. For the same compound, the “NRAS/KRAS (ratio of KD value for GDP-bound NRAS wild-type protein to KD value for KRAS)” value in experiment [2] was “A (a compound having 10 or more and less than 20 is denoted as A)”. Moreover, in experiment [3], the “HRAS/KRAS (ratio of KD value for GDP-bound HRAS wild-type protein to KD value for KRAS)” value was “A (a compound having 10 or more and less than 20 is denoted as A)”. Besides, in experiment [4], the IC50 came out at 61.1 nM.
